Source: patent US20260078135A1, “POLYCYCLIC QUINAZOLINES FOR INHIBITION OF ERBB2” (Enliven Inc., priority 2022, published 2026)

Legend:
[1] = molecular target: T1, phosphorylated EGFR (pEGFR) (Homo sapiens, UniProt P00533); assay: Detection of phosphorylated EGFR (pEGFR) by AlphaLISA in EGF-stimulated A431 cells; format: cell-based; conditions: A431 cells (10% FBS), 4 hours incubation, EGF 30 ng/mL for 10 minutes
T1 construct: performed to measure phosphorylated EGFR levels using A431 cells (10% FBS); endogenous in cells; host or cells: A431
Procedure, shortened: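 A431 cells in 10% FBS were preincubated with compound for 4 h at 37 °C, then stimulated with 30 ng/mL EGF for 10 min and lysed. pEGFR read by AlphaLISA. % inhibition normalised to DMSO and staurosporine controls; IC50 from four-parameter curve fit.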

Ba/F3 ERBB2 YVMA = Ba/F3 ERBB2 YVMA (Homo sapiens, UniProt P04626, DUP772-775, cells depend on it); assay: Cell viability assay (CellTiter Glo), Ba/F3 cells engineered to express ERBB2 YVMA; format: cell-based, mouse; conditions: Ba/F3 cells expressing human ERBB2 YVMA mutant, 72 hours, read-out: Ba/F3 ERBB2 YVMA, IC50
Procedure, shortened: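 Ba/F3 cells (IL-3-independent via stable retroviral human ERBB2 YVMA) seeded 3000/well and given compound from about 10 μM to 0.51 nM in three-fold steps, DMSO ≤0.1%, 72 h at 37° C. Viability by CellTiter Glo luminescence, normalized to DMSO and media-only controls. Sigmoidal nonlinear fit.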

[2] = molecular target: T2, phosphorylated ERBB2 (pERBB2) (Homo sapiens, UniProt P04626); assay: Detection of phosphorylated ERBB2 (pERBB2) by ELISA in BT-474 cells; format: cell-based; conditions: four hour incubation
T2 construct: endogenous in cells; host or cells: BT-474
Procedure, shortened: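 BT-474 cells were treated with compounds (fourfold dilutions, 10 μM to 0.01 nM final) for 4 h at 37 °C, then lysed. pERBB2 in lysates was quantified by ELISA with an HRP anti-phosphotyrosine detection antibody and TMB read at 450 nm; % relative activity was normalized to no-cell and 0.1% DMSO controls.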

T1 sequence (P00533 25-1210): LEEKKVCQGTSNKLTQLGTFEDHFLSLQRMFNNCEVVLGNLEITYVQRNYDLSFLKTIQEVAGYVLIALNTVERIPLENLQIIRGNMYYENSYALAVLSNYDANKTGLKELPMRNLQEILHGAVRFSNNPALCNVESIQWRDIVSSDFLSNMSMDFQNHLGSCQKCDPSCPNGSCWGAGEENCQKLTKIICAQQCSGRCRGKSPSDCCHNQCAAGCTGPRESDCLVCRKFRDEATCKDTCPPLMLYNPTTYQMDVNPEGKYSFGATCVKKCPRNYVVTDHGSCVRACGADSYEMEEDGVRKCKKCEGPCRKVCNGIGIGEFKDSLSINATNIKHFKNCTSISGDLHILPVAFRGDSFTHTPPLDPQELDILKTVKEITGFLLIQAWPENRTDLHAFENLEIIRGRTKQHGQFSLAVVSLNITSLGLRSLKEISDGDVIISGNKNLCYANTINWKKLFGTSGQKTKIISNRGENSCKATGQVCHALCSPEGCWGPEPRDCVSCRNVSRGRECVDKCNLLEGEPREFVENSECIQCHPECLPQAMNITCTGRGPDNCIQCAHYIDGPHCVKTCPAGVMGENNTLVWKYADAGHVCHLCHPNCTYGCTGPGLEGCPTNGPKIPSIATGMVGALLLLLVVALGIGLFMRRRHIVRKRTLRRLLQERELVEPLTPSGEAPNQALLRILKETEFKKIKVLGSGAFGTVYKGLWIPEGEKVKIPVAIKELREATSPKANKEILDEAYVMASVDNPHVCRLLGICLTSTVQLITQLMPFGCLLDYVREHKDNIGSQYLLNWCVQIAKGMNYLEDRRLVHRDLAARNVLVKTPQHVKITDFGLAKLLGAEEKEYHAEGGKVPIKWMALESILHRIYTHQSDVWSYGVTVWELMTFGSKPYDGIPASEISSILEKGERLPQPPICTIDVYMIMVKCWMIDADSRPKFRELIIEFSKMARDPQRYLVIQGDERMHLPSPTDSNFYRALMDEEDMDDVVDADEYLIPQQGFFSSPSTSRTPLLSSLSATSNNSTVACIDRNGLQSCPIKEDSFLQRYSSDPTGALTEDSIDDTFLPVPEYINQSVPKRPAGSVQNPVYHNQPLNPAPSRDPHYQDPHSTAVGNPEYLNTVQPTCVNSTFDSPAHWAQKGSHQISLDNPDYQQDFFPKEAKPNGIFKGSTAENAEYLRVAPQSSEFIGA
Sequence of Ba/F3 ERBB2 YVMA (P04626 with tags, fused parts or gaps DUP772-775): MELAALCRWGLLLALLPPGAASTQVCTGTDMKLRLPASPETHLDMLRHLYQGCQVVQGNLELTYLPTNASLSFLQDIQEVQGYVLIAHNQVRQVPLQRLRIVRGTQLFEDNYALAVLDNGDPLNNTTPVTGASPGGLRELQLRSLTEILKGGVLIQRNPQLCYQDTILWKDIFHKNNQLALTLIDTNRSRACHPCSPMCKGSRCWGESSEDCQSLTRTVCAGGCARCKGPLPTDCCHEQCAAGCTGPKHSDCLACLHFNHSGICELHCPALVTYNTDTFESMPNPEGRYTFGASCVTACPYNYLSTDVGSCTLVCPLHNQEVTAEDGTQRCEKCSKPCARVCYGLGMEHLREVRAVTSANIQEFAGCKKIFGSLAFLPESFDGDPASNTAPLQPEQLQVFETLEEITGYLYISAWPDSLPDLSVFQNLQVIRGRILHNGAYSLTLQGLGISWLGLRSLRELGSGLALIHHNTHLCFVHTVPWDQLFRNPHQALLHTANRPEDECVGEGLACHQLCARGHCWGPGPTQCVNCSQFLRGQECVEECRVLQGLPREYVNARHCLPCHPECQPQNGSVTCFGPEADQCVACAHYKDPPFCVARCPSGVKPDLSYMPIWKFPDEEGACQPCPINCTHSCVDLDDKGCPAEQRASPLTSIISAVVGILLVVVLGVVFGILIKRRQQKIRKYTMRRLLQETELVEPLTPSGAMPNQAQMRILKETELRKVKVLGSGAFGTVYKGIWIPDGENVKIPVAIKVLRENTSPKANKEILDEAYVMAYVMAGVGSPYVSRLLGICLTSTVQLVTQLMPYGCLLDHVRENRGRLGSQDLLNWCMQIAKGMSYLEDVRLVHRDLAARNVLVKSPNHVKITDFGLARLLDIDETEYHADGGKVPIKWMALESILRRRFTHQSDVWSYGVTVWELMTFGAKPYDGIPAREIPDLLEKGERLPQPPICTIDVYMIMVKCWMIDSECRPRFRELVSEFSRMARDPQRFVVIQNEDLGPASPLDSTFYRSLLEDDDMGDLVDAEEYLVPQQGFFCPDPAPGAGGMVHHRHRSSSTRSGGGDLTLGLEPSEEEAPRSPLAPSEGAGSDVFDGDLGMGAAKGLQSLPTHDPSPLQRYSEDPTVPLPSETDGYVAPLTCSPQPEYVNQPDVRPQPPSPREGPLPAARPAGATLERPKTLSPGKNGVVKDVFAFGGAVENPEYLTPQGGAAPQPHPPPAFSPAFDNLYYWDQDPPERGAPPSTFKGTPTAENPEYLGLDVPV
T2 sequence (P04626 23-1255): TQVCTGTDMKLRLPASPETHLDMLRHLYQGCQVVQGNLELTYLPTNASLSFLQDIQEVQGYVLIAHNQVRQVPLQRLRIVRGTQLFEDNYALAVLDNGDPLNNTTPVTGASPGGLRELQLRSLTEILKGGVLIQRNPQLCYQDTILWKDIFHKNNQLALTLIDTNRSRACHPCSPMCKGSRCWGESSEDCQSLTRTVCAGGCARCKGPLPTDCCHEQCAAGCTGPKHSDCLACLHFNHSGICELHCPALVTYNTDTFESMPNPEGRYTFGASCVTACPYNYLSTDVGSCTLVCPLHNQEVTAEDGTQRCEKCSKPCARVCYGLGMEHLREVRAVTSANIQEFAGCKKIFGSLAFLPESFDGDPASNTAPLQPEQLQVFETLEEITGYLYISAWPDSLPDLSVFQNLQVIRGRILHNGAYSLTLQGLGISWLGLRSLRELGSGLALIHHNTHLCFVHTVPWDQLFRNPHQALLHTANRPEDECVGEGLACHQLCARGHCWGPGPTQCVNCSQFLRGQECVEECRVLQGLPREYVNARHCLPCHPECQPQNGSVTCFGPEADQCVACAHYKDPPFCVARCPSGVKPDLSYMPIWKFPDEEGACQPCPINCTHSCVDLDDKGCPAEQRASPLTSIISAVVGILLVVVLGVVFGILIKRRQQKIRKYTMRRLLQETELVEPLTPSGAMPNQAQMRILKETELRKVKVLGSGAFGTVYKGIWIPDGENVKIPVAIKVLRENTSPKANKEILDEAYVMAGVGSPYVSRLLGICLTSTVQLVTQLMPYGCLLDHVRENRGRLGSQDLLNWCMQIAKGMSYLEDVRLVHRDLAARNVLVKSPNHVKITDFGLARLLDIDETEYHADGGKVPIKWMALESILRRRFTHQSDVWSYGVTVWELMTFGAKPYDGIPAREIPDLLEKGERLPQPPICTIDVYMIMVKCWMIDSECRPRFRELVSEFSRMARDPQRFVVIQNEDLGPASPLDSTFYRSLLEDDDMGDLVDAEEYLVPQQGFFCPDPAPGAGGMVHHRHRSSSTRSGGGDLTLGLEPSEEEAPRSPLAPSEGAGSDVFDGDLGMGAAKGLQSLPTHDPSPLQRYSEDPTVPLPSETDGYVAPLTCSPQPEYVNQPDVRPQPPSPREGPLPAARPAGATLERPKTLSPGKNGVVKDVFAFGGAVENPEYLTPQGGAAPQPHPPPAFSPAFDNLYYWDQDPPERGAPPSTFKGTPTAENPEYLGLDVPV

Structure (SMILES)	IC50 [1]	GI50 (Ba/F3 ERBB2 YVMA)	IC50 [2]
Cc1cc(Nc2ncnc3ccc4c(c23)O[C@@H]2CCN(C)C[C@H]2N4C)ccc1Oc1ccc2c(c1)ncn2C (relative stereo) [Compound 124, trans-7,9-dimethyl-N-(3-methyl-4-((1-methyl-1H-benzo[d]imidazol-5-yl)oxy)phenyl)-7a,8,9,10,11,11a-hexahydro-7H-pyrido[3′,4′:5,6][1,4]oxazino[2,3-f]quinazolin-1-amine]	> 10000 nM	93.7 nM	63 nM
Cc1cc(Nc2ncnc3cnc4c(c23)OC[C@H]2CN(C(=O)/C=C/CN(C)C)CCN42)ccc1Oc1ccn2ncnc2c1 [Compound 113, (R,E)-1-(4-((4-([1,2,4]triazolo[1,5-a]pyridin-7-yloxy)-3-methylphenyl)amino)-6a,7,9,10-tetrahydropyrazino[1,2-d]pyrimido[5′,4′:4,5]pyrido[3,2-b][1,4]oxazin-8(6H)-yl)-4-(dimethylamino)but-2-en-1-one]	593 nM	3.57 nM	11.3 nM
Cc1cc(Nc2ncnc3cc4c(nc23)N2CCNC[C@H]2CO4)ccc1Oc1ccn2ncnc2c1 [Compound 34, (S)—N-(4-([1,2,4]triazolo[1,5-a]pyridin-7-yloxy)-3-methylphenyl)-1,2,3,4,4a,5-hexahydropyrazino[1,2-d]pyrimido[4′,5′:5,6]pyrido[3,2-b][1,4]oxazin-11-amine]	> 10000 nM	474 nM	53.6 nM
Cc1cc(Nc2ncnc3ccc4c(c23)OC[C@H]2CN4CCN2C(=O)/C=C/[C@@H](C)N(C)C)c(F)cc1Oc1ccn2ncnc2c1 [Compound 90, (4R,E)-1-((3R)-13-((4-([1,2,4]triazolo[1,5-a]pyridin-7-yloxy)-2-fluoro-5-methylphenyl)amino)-2,3,5,6-tetrahydro-4H-3,7-methano[1,4,7]oxadiazonino[2,3-f]quinazolin-4-yl)-4-(dimethylamino)pent-2-en-1-one]	> 10000 nM	28.7 nM	50.4 nM
CN(C)C/C=C/C(=O)N1CCN2C[C@@H]1COc1c2ccc2ncnc(Nc3ccc(Oc4ccn5ncnc5c4)c(F)c3)c12 [Compound 76, (E)-1-((3R)-13-((4-([1,2,4]triazolo[1,5-a]pyridin-7-yloxy)-3-fluorophenyl)amino)-2,3,5,6-tetrahydro-4H-3,7-methano[1,4,7]oxadiazonino[2,3-f]quinazolin-4-yl)-4-(dimethylamino)but-2-en-1-one]	381 nM	5.86 nM	5.66 nM
Cc1cc(Nc2ncnc3ccc4c(c23)OC[C@H]2CN4CCN2C(=O)/C=C/[C@H](C)N(C)C)c(F)cc1Oc1ccn2ncnc2c1 [Compound 91, (4S,E)-1-((3R)-13-((4-([1,2,4]triazolo[1,5-a]pyridin-7-yloxy)-2-fluoro-5-methylphenyl)amino)-2,3,5,6-tetrahydro-4H-3,7-methano[1,4,7]oxadiazonino[2,3-f]quinazolin-4-yl)-4-(dimethylamino)pent-2-en-1-one triformate]	> 10000 nM	164 nM	147 nM
Cc1cc(Nc2ncnc3ccc4c(c23)OC[C@@H]2CN(C(=O)/C=C/C3CN(C)C3)CCN42)ccc1Oc1ccn2ncnc2c1 [Compound 114, (S,E)-1-(4-((4-([1,2,4]triazolo[1,5-a]pyridin-7-yloxy)-3-methylphenyl)amino)-6a,7,9,10-tetrahydropyrazino[1′,2′:4,5][1,4]oxazino[2,3-f]quinazolin-8(6H)-yl)-3-(1-methylazetidin-3-yl)prop-2-en-1-one formic acid]	> 10000 nM	172 nM	43.1 nM
CN(C)C/C=C/C(=O)N1CCN2C[C@@H]1COc1c2ccc2ncnc(Nc3cc(F)c(Oc4ccn5ncnc5c4)cc3F)c12 [Compound 96, (E)-1-((3R)-13-((4-([1,2,4]triazolo[1,5-a]pyridin-7-yloxy)-2,5-difluorophenyl)amino)-2,3,5,6-tetrahydro-4H-3,7-methano[1,4,7]oxadiazonino[2,3-f]quinazolin-4-yl)-4-(dimethylamino)but-2-en-1-one]	221 nM	9.12 nM	19.1 nM
Cc1cc(Nc2ncnc3ccc4c(c23)OC[C@H]2CN(C(=O)/C=C/CN(C)C)CCN42)ccc1Oc1ccc2c(c1)ncn2C [Compound 22, (R,E)-4-(dimethylamino)-1-(4-((3-methyl-4-((1-methyl-1H-benzo[d]imidazol-5-yl)oxy)phenyl)amino)-6a,7,9,10-tetrahydropyrazino[1′,2′:4,5][1,4]oxazino[2,3-f]quinazolin-8(6H)-yl)but-2-en-1-one]	544 nM	2.12 nM	22.8 nM
CC#CC(=O)N1CCN2c3cc4c(Nc5ccc(Oc6ccc7c(c6)ncn7C)c(C)c5)ncnc4cc3OC[C@@H]2C1 [Compound 14, (S)-1-(11-((3-methyl-4-((1-methyl-1H-benzo[d]imidazol-5-yl)oxy)phenyl)amino)-1,2,4a,5-tetrahydropyrazino[1′,2′:4,5][1,4]oxazino[3,2-g]quinazolin-3(4H)-yl)but-2-yn-1-one]	545 nM	14.4 nM	82.8 nM
Cc1cc(Nc2ncnc3cnc4c(c23)OC[C@H]2CN4CCN2C(=O)/C=C/CN(C)C)c(F)cc1Oc1ccn2ncnc2c1 [Compound 83, (E)-1-((3R)-13-((4-([1,2,4]triazolo[1,5-a]pyridin-7-yloxy)-2-fluoro-5-methylphenyl)amino)-2,3,5,6-tetrahydro-4H-3,7-methanopyrimido[5′,4′:4,5]pyrido[3,2-b][1,4,7]oxadiazonin-4-yl)-4-(dimethylamino)but-2-en-1-one]	344 nM	14 nM	17.3 nM
C=CC(=O)N1CCN2c3ccc4ncnc(Nc5ccc(Oc6ccc7c(c6)ncn7C)c(C)c5)c4c3OC[C@H]2C1 [Compound 20, (R)-1-(4-((3-methyl-4-((1-methyl-1H-benzo[d]imidazol-5-yl)oxy)phenyl)amino)-6a,7,9,10-tetrahydropyrazino[1′,2′:4,5][1,4]oxazino[2,3-f]quinazolin-8(6H)-yl)prop-2-en-1-one]	150 nM	19.7 nM	27.5 nM
Cc1cc(Nc2ncnc3cnc4c(c23)OC[C@H]2CN(C)CCN42)ccc1Oc1cc2ncn(C)c2cn1 [Compound 128, (R)-8-methyl-N-(3-methyl-4-((3-methyl-3H-imidazo[4,5-c]pyridin-6-yl)oxy)phenyl)-6,6a,7,8,9,10-hexahydropyrazino[1,2-d]pyrimido[5′,4′:4,5]pyrido[3,2-b][1,4]oxazin-4-amine]	> 10000 nM	211 nM	35.3 nM
Cc1cc(Nc2ncnc3cnc4c(c23)O[C@H]2CCNC[C@H]2N4C)ccc1Oc1ccc2c(c1)ncn2C [Compound 132, (7aR,11aS)-7-methyl-N-(3-methyl-4-((1-methyl-1H-benzo[d]imidazol-5-yl)oxy)phenyl)-7a,8,9,10,11,11a-hexahydro-7H-pyrido[4,3-b]pyrimido[5′,4′:4,5]pyrido[2,3-e][1,4]oxazin-1-amine]	> 10000 nM	> 500 nM	307 nM
CN(C)C/C=C/C(=O)N1CCN2c3ccc4ncnc(Nc5cc(F)c(Oc6ccn7ncnc7c6)cc5F)c4c3OC[C@@H]2C1 [Compound 98, (S,E)-1-(4-((4-([1,2,4]triazolo[1,5-a]pyridin-7-yloxy)-2,5-difluorophenyl)amino)-6a,7,9,10-tetrahydropyrazino[1′,2′:4,5][1,4]oxazino[2,3-f]quinazolin-8(6H)-yl)-4-(dimethylamino)but-2-en-1-one]	> 10000 nM	16.6 nM	60 nM
C=CC(=O)N1CCN2C[C@@H]1COc1c2ccc2ncnc(Nc3ccc(Oc4ccn5ncnc5c4)c(C)c3)c12 [Compound 25, 1-((3R)-13-((4-([1,2,4]triazolo[1,5-a]pyridin-7-yloxy)-3-methylphenyl)amino)-2,3,5,6-tetrahydro-4H-3,7-methano[1,4,7]oxadiazonino[2,3-f]quinazolin-4-yl)prop-2-en-1-one]	1580 nM	15.5 nM	11.5 nM
C=CC(=O)N1CCN2c3ccc4ncnc(Nc5ccc(Oc6ccc7c(c6)ncn7C)c(C)c5)c4c3OC[C@@H]2C1 [Compound 21, (S)-1-(4-((3-methyl-4-((1-methyl-1H-benzo[d]imidazol-5-yl)oxy)phenyl)amino)-6a,7,9,10-tetrahydropyrazino[1′,2′:4,5][1,4]oxazino[2,3-f]quinazolin-8(6H)-yl)prop-2-en-1-one]	575 nM	16.2 nM	22.7 nM
